Measurements taken from patent US7517910B2, “Alkoxyphenylpropanoic acid derivatives” (Takeda Pharmaceutical Company Limited, priority 2004, dated 2009).
Where a name gives a salt, the structure may show the parent alone.

Target: T1, human GPR40 (Homo sapiens, UniProt O14842)
T1 construct: expressed in transfected cells; host or cells: CHO cell line stably expressing human GPR40
Assay: Determination of EC50 against human GPR40: change in intracellular calcium concentration by FLIPR in CHO cells stably expressing human GPR40
Format: cell-based
Conditions: CHO cell line stably expressing human GPR40; intracellular calcium change measured by FLIPR (Fluo3-AM); EC50 from dose-response curve; read-out: EC50 (receptor function modulating action on GPR40)
Procedure: Determination of EC50 of the compound of the present invention against human GPR40
For determination of EC50, CHO cell line that stably expressed human GPR40 was used. Unless otherwise indicated, the CHO cell line was cultured using α-MEM medium (Invitrogen) containing 10% fetal bovine serum (Invitrogen).
The cells cultured to nearly confluent were rinsed with PBS (Invitrogen) on the previous day of the assay, peeled off with 0.05% Trypsin.EDTA solution (Invitrogen) and recovered by centrifugation. The number of the obtained cells was counted, and the cells were diluted such that 3×10^5 cells were contained per 1 mL of the medium, dispensed to a black welled 96-well plate (coster) by 100 μL per well and cultured overnight in a CO2 incubator. Various test compounds were added to the CHO cells thus prepared, and the changes in the intracellular calcium concentration were measured using FLIPR (Molecular Device). The below-mentioned pre-treatment was applied to measure changes in the intracellular calcium concentration by FLIPR.
First, an assay buffer for adding a fluorescence dye Fluo3-AM (DOJIN) to the cells, or for washing the cells immediately before FLIPR assay was prepared. To a solution of HBSS (Invitrogen, 1000 mL) added 1 M HEPES (pH 7.4, DOJIN, 20 mL) (hereinafter HBSS/HEPES solution) was added a solution (10 mL) obtained by dissolving probenecid (Sigma, 710 mg) in 1 N NaOH (5 mL), and adding and mixing an HBSS/HEPES solution (5 mL), and the resulting solution was used as an assay buffer. Next, Fluo3-AM (50 μg) was dissolved in dimethyl sulfoxide (Wako, 21 μL), and an equivalent amount of 20% pluronic acid (Molecular Probes) was added and mixed. The solution was added to the assay buffer (10.6 mL) supplemented with fetal bovine serum (105 μL) to give a fluorescence dye solution. The medium of the CHO cells inoculated to the black welled 96-well plate on the previous day of assay was removed, the fluorescence dye solution was immediately dispensed by 100 μL per well and the cells were cultured in a CO2 incubator for 1 hr to allow intake of the fluorescence dye by the cells. The cells after the culture were washed with the above-mentioned assay buffer and set on FLIPR. The test compound was diluted with dimethylsulfoxide in advance, dispensed to a polypropylene 96-well plate (sample plate) by 2 μL, and cryopreserved at −20° C. To the thawed sample plate was added an assay buffer containing 0.015% CHAPS (DOJIN) by 198 μL, and simultaneously set on FLIPR together with the cell plate. After the aforementioned pre-treatment, changes in the intracellular calcium concentration upon addition of various test compounds was measured by FLIPR. Based on the results, a dose-response curve of each test compound was formed and EC50 was calculated.

T1 sequence (O14842 whole entry): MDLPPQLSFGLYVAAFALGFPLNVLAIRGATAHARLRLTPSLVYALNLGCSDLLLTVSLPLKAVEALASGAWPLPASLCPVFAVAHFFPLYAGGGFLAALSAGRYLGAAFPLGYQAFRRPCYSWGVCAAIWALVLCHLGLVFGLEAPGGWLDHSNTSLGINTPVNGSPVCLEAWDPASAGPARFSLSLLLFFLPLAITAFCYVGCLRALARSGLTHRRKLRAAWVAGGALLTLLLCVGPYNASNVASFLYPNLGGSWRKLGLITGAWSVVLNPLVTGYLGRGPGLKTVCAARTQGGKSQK

Compound	EC50 [nM]
O=C(O)CCc1ccc(OCc2ccccc2-c2csc3ccccc23)cc1 [Example 10, 3-(4-{[2-(1-benzothiophen-3-yl)benzyl]oxy}phenyl)propanoic acid]	< 1000
O=C(O)CCc1ccc(OCc2ccc(Cn3ccnc3-c3ccccc3)cc2)cc1 [Example 56, 3-[4-([4-[(2-phenyl-1H-imidazol-1-yl)methyl]benzyl]oxy)phenyl]propanoic acid]	< 1000
CC(C)COc1ccc(COc2ccc(CCC(=O)O)cc2)cc1Cn1c(-c2ccccc2)cc2ccccc21 [Example 60, 3-[4-({4-isobutoxy-3-[(2-phenyl-1H-indol-1-yl)methyl]benzyl)oxy)phenyl]propanoic acid]	< 100
O=C(O)CCc1ccc(OCc2ccc(Cn3nc(-c4ccc(C(F)(F)F)cc4)cc3CCc3ccccc3)cc2)cc1 [Example 65, 3-(4-{[4-({5-(2-phenylethyl)-3-[4-(trifluoromethyl)phenyl]-1H-pyrazol-1-yl}methyl)benzyl]oxy}phenyl)propanoic acid]	< 1000
CC(C)COc1ccc(COc2ccc(CCC(=O)O)cc2)cc1CN1c2ccccc2CCC1C (centres unmarked) [Example 111, 3-[4-({4-isobutoxy-3-[(2-methyl-3,4-dihydroquinolin-1 (2H)-yl)methyl]benzyl}oxy)phenyl]propanoic acid]	< 1000
CC(C)(C)c1cc(OCc2ccccc2)n(Cc2ccc(COc3ccc(CCC(=O)O)c(F)c3)cc2)n1 [Example 133, 3-{4-[(4-([5-(benzyloxy)-3-tert-butyl-1H-pyrazol-1-yl]methyl)benzyl)oxy]-2-fluorophenyl}propanoic acid calcium salt]	< 100
Cc1cccc(COc2cc(C(C)(C)C)nn2Cc2ccc(COc3ccc(CCC(=O)O)c(F)c3)cc2)n1 [Example 137, 3-(4-{[4-({3-tert-butyl-5-[(6-methylpyridin-2-yl)methoxy]-1H-pyrazol-1-yl}methyl)benzyl]oxy}-2-fluorophenyl)propanoic acid calcium salt]	< 100
CC(C)(C)c1cc(-c2ccccc2)n(Cc2ccc(COc3ccc(CCC(=O)O)c(F)c3)cc2)n1 [Example 141, 3-[4-({4-[(3-tert-butyl-5-phenyl-1H-pyrazol-1-yl)methyl]benzyl)oxy)-2-fluorophenyl]propanoic acid]	< 100

The next lines start with the values.

EC50 [nM]	Compound
< 10	Cc1sc(C)c(-c2cccc(COc3ccc(CCC(=O)O)cc3)c2)c1C [Example 4, 3-(4-([3-(2,4,5-trimethyl-3-thienyl)benzyl]oxy}phenyl)propanoic acid]
< 100	O=C(O)CCc1ccc(OCc2cccc(-c3ccc4c(ccn4Cc4ccccc4)c3)c2)cc1 [Example 20, 3-(4-([3-(1-benzyl-1H-indol-5-yl)benzyl]oxy}phenyl)propanoic acid]
< 10	Cc1cc2ccccc2n1-c1cccc(COc2ccc(CCC(=O)O)cc2)c1 [Example 24, 3-(4-{[3-(2-methyl-1H-indol-1-yl)benzyl]oxy}phenyl)propanoic acid]
< 100	O=C(O)CCc1ccc(OCc2cccc(N3CCOC(c4ccccc4)C3)c2)cc1 (centres unmarked) [Example 29, 3-(4-{[3-(2-phenylmorpholin-4-yl)benzyl]oxy}phenyl)propanoic acid]
< 10	CC1CCc2ccccc2N1c1cccc(COc2ccc(CCC(=O)O)cc2)c1 (centres unmarked) [Example 40, 3-(4-{[3-(2-methyl-3,4-dihydroquinolin-1 (2H)-yl)benzyl]oxy}phenyl)propanoic acid]
< 100	O=C(O)CCc1ccc(OCc2ccc(Cn3c(-c4ccccc4)cc4ccccc43)cc2)cc1 [Example 45, 3-[4-({4-[(2-phenyl-1H-indol-1-yl)methyl]benzyl}oxy)phenyl]propanoic acid]
< 100	Cc1cc(-c2ccccc2)n(Cc2ccc(COc3ccc(CCC(=O)O)cc3)cc2)n1 [Example 112, 3-[4-([4-[(3-methyl-5-phenyl-1H-pyrazol-1-yl)methyl]benzyl}oxy)phenyl]propanoic acid]
< 100	CCOCCn1c(-c2ccccc2)c(-c2cccc(COc3ccc(CCC(=O)O)c(F)c3)c2)c2ccccc21 [Example 118, 3-[4-({3-[1-(2-ethoxyethyl)-2-phenyl-1H-indol-3-yl]benzyl}oxy)-2-fluorophenyl]propanoic acid]
< 100	CC(C)(C)c1cc(COc2ccccc2)n(Cc2ccc(COc3ccc(CCC(=O)O)c(F)c3)cc2)n1 [Example 131, 3-{4-[(4-{[3-tert-butyl-5-(phenoxymethyl)-1H-pyrazol-1-yl]methyl}benzyl)oxy]-2-fluorophenyl}propanoic acid calcium salt]
